Data from patent US10357574B2, “Optical sensor conjugates for detecting reactive oxygen and/or reactive nitrogen species in vivo” (The General Hospital Corporation, priority 2010, dated 2019).

Tested on: infarcted mouse hearts
Experiment: Mouse model of myocardial infarction (permanent coronary ligation), fluorescence imaging of heart sections
Type: in vivo, mice (C57/B6)
Conditions: injected intravenously into the tail-vein 12-14 hours after MI, imaged 24 hours later
Procedure: To investigate the utility of the optical sensor conjugate in vivo, we determined the ability of the sensor to monitor ischemia and inflammation as a result of permanent coronary ligation in a mouse model of myocardial infarction. For all experiments, the agents (optical sensor conjugate or fluorogenic small molecule with linker) were injected intravenously into the tail-vein of the mice 12-14 hours after MI and imaged 24 hours later when neutrophil recruitment to the infarct is high.
Anesthesized mice were intubated and a thoracotomy was performed in the 4th left intercostal space to visualize the left ventricle where the left coronary artery was ligated. […]
Hearts were excised and rinsed in PBS and cut into myocardial rings of 1-mm thickness and either immediately stained with 2-3-5-triphenyl tetrazolium chloride (TTC) (Nahrendorf et al. Circulation, 113:1196-202 (2006)) to highlight the infarcted tissue or used for histological analysis. Fluorescence reflectance imaging of side-by-side myocardial rings of controls and injected hearts was performed in the GFP channel (lexc=450-480 nm with lem 500-530 nm) and Cy5 channel (lexc=620-650 nm with lem=680-710 nm) using an Olympus OV-100 system (Olympus, Center Valley, Pa.). For histology and fluorescence microscopy, the tissue was embedded in OCT medium (Sakura Finetek, Torrance, Calif.). […]

## CCN(CC)c1ccc2c(c1)Oc1cc(N(CC)CC)ccc1N2C(=O)CCCC(=O)O [small molecule probe, sodium 5-(3,7-bis(diethylamino)-10H-phenoxazin-10-yl)-5-oxopentanoate]
  localization of fluorescence in coronal heart sections (fluorescence reflectance imaging): washed out of the infarct and into the myocardium
